Laboratory results: ChEMBL document CHEMBL1154255 (2009)
In brackets after ≈: the same amount, converted by molar mass.

What was measured:
Assay type in all cases: functional
BXPC-3 = test: Growth inhibition of human BxPC3 cells after 48 hrs by sulforhodamine B assay; settings: BXPC-3, 48 h
DU-145 = test: Growth inhibition of human DU145 cells after 48 hrs by sulforhodamine B assay; settings: DU-145, 48 h
NCI-H460 = test: Growth inhibition of human NCI-H460 cells after 48 hrs by sulforhodamine B assay; settings: NCI-H460, 48 h
SF-268 = test: Growth inhibition of human SF268 cells after 48 hrs by sulforhodamine B assay; settings: SF-268, 48 h
KM-20L2 = test: Growth inhibition of human KM20L2 cells after 48 hrs by sulforhodamine B assay; settings: KM-20L2, 48 h
MCF7 = test: Growth inhibition of human MCF7 cells after 48 hrs by sulforhodamine B assay; settings: MCF7, 48 h

GI50 (BXPC-3) [µg/mL] | GI50 (DU-145) [µg/mL] | GI50 (NCI-H460) [µg/mL] | GI50 (MCF7) [µg/mL] | SMILES | GI50 (SF-268) [µg/mL] | GI50 (KM-20L2) [µg/mL]
3.9 (≈ 12.3 µM) | 0.037 (≈ 0.117 µM) | 0.038 (≈ 0.12 µM) |  | COc1ccc(/C=C/c2cc(OC)c(OC)c(OC)c2)cc1O [E-COMBRETASTATIN A-4] |  | 
5 (≈ 16.5 µM) | 6.3 (≈ 20.8 µM) | 4.9 (≈ 16.2 µM) |  | COc1ccc(/C=C/c2cc(OC)c(O)c(OC)c2)cc1O |  | 
> 10 | > 10 | > 10 | 5.5 (≈ 17.3 µM) | COc1cc(/C=C/c2ccc(OC)c(O)c2O)cc(OC)c1O | > 10 | > 10
0.39 (≈ 1.23 µM) | 0.0008 (≈ 0.00253 µM) | 0.0006 (≈ 0.0019 µM) |  | COc1ccc(/C=C\c2cc(OC)c(OC)c(OC)c2)cc1O [COMBRETASTATIN A4] | > 0.01 | 0.34 (≈ 1.07 µM)
> 10 | > 10 | > 10 | > 10 | COc1cc(/C=C/c2ccc(OC)c(OP(=O)([O-])[O-])c2OP(=O)([O-])[O-])cc(OC)c1OP(=O)([O-])[O-].[Na+].[Na+].[Na+].[Na+].[Na+].[Na+] | > 10 | > 10
 |  |  |  | Oc1ccc(/C=C\c2cc(O)cc(O)c2)cc1 [CIS-RESVERATROL] | 5 (≈ 21.9 µM) | 22 (≈ 96.4 µM)

SMILES | GI50 (BXPC-3) [µg/mL] | GI50 (DU-145) [µg/mL] | GI50 (NCI-H460) [µg/mL] | GI50 (MCF7) [µg/mL] | GI50 (SF-268) [µg/mL] | GI50 (KM-20L2) [µg/mL]
COc1ccc(/C=C/c2cc(OC)cc(OC)c2)cc1 [TRISMETHOXYRESVERATROL] | 0.35 (≈ 1.29 µM) | 1.5 (≈ 5.55 µM) | 0.62 (≈ 2.29 µM) |  | 0.56 (≈ 2.07 µM) | 
COc1ccc(/C=C\c2cc(OC)cc(OC)c2)cc1 [8Z-3,4',5-TRIMETHOXYSTILBENE] | 0.0034 (≈ 0.0126 µM) | 0.0054 (≈ 0.02 µM) | 0.0028 (≈ 0.0104 µM) |  | 0.0044 (≈ 0.0163 µM) | 
